Assay results reported in US12590099B2, “Inhibitors of histone deacetylase useful for the treatment or prevention of HIV infection” (Merck Sharp & Dohme LLC, priority 2018, dated 2026).
Where two headings read alike, the source gives them in different places.

How the values were obtained:
[1] = target: T1, Recombinant human HDAC3/SMRT heterodimer (Homo sapiens, UniProt O15379); assay: Human HDAC enzyme inhibitor Fluor-de-Lys assay, HDAC3/SMRT; type: biochemical
T1 construct: FLAG (C); made in house
T1 sequence (O15379 whole entry): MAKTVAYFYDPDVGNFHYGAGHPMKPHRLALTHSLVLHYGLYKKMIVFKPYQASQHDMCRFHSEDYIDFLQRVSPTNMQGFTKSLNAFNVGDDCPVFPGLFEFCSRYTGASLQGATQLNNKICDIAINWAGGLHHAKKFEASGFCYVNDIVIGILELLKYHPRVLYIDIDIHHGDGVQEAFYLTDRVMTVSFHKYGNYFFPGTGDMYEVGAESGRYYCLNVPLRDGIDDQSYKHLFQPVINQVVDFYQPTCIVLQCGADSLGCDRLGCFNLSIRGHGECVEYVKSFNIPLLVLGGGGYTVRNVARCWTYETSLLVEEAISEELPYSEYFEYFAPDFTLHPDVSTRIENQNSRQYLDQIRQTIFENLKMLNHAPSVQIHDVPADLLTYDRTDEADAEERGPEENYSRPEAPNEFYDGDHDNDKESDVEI
T1 sequence (Q9Y618 1-899 partner limits assumed): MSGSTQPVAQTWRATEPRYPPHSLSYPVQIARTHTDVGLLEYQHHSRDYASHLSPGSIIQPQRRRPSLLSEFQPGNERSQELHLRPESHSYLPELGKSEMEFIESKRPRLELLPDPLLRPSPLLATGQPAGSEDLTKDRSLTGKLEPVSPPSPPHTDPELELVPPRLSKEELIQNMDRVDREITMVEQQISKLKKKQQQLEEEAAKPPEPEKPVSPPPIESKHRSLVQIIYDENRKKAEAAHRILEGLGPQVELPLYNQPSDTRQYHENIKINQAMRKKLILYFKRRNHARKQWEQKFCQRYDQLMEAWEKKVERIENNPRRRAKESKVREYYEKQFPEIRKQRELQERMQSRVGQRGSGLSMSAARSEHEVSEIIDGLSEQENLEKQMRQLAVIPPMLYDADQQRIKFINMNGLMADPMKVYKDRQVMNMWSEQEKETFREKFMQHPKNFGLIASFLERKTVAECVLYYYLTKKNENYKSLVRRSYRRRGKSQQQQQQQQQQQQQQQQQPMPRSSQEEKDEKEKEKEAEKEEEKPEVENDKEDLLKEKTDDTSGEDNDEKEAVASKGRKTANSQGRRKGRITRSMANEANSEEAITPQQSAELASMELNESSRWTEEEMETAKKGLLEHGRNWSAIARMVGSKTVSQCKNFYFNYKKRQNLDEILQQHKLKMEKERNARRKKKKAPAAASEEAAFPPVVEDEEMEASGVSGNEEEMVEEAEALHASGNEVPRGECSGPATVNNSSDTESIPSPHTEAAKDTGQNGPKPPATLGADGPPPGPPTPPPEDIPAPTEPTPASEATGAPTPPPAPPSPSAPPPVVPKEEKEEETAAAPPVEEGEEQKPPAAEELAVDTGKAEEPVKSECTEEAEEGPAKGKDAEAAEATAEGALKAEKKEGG

Recombinant human HDAC8 = target: T2, Recombinant human HDAC8 (Homo sapiens, UniProt Q9BY41); assay: Human HDAC enzyme inhibitor Fluor-de-Lys assay, HDAC8; type: biochemical
T2 construct: purchased Enzo Life Sciences BML-SE145-0100
T2 sequence (Q9BY41 1-377): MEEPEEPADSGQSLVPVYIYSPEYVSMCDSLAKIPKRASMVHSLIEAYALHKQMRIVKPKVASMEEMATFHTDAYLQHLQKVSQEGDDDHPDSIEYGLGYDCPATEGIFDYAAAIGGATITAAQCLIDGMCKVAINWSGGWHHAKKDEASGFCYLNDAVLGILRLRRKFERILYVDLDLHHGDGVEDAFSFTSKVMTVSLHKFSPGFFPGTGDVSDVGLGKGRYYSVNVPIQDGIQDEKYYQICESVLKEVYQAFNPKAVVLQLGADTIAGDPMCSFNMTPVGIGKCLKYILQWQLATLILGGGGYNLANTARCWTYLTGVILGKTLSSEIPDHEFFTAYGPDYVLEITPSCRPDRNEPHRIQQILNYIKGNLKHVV

KARN cells (Jurkat 2C4) = assay: cells; type: cell-based; details: Homo sapiens, Jurkat
Method in brief: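 Luminescence (Steady-Glo, 10 min, room temperature) measured next day in KARN Jurkat 2C4 cells given compounds at up to 40 μM final with 0.4% DMSO. Percent activation normalised to DMSO (0%) and 2 μM SAHA (100%), fitted by 4-parameter curve.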

[2] = read-out: Karn EC50 (nM) 0.1% NHS, 0.1% normal human serum
[3] = read-out: Karn EC50 (nM) 5% NHS, 5% normal human serum

SMILES | IC50 [1] [nM] | IC50 (Recombinant human HDAC8) [nM] | EC50 (KARN cells (Jurkat 2C4); [2]) [nM] | EC50 (KARN cells (Jurkat 2C4); [3]) [nM]
CC(O)C(=O)CCCCC[C@H](NC(=O)[C@H]1CC12CCN(C)CC2)c1nc(-c2ccc(F)cc2)c[nH]1 (stereo partly drawn) [Compound 134, (1S)—N-{(1S)-1-[4-(4-fluorophenyl)-1H-imidazol-2-yl]-8-hydroxy-7-oxononyl}-6-methyl-6-azaspiro[2.5]octane-1-carboxamide] | 4 | 574 | 2410 | 2190
CCC(=O)CCCCC[C@H](NC(=O)C1=NOC2(CCN(C)CC2)C1)c1ncc(-c2ccc3nc(C4CC4)ccc3c2)o1 [Compound 135] | 11 | 18300 | 1120 | 1380
CCC(=O)CCCCC[C@H](NC(=O)C1=NOC2(CCN(C(C)C)CC2)C1)c1ncc(-c2ccc3nc(C4CC4)ccc3c2)o1 [Compound 136] | 6.41 | 4800 | 2500 | –
CCC(=O)CCCCC[C@H](NC(=O)[C@H]1CC12CCN(C)CC2)c1ncc(-c2ccc3c(=O)n(C)ccc3c2)o1 [Compound 137] | 4.72 | 33500 | 434 | 443
CCC(=O)CCCCC[C@H](NC(=O)[C@H]1CC12CCN(C)CC2)c1ncc(-c2ccc3oc(=O)ccc3c2)[nH]1 [Compound 138] | 1.62 | 10100 | 210 | 223
CCC(=O)CCCCC[C@H](NC(=O)[C@H]1CC12CCN(C)CC2)c1ncc(-c2ccc(C3CC3)nc2)[nH]1 [Compound 139] | 2.39 | 12000 | 532 | 552
CCC(=O)CCCCC[C@H](NC(=O)[C@H]1CC12CCN(C)CC2)c1ncc(-c2ccc3ncc(Cl)cc3c2)[nH]1 [Compound 140] | 0.95 | 4110 | 113 | 155
CCC(=O)CCCCC[C@H](NC(=O)[C@H]1CC[C@]2(CC1)OC(=O)c1ncccc12)c1ncc(-c2cc3ccccc3nc2OC)[nH]1 [Compound 141] | 1.98 | 2110 | 146 | 1450
CCC(=O)CCCCC[C@H](NC(=O)[C@H]1CC12CCN(C)CC2)c1ncc(-c2ccc(-c3ccc(C4CC4)nc3)cc2)o1 [Compound 143] | 32 | 13100 | 1240 | 1330
CCC(=O)CCCCC[C@H](NC(=O)C1CC2(CCN(C)CC2)C1)c1ncc(-c2ccc3nn(C)cc3c2)[nH]1 [Compound 145] | 2.61 | 4270 | 641 | 746
CCC(=O)CCCCC[C@H](NC(=O)[C@H]1CC12CCN(C)CC2)c1ncc(-c2ccc3nc(C4CC4)sc3c2)[nH]1 [Compound 146] | 0.64 | 7710 | 122 | 112
CCC(=O)CCCCC[C@H](NC(=O)C1CC2(C1)CN(C)C2)c1ncc(-c2ccc3nn(C)cc3c2)[nH]1 [Compound 147] | < 1.5 | 2770 | 3580 | 2850
CCC(=O)CCCCC[C@H](NC(=O)[C@H]1CC12CCN(C)CC2)c1ncc(-c2ccc3nc(CC)sc3c2)[nH]1 [Compound 149] | 0.62 | 2720 | 92 | 73
CCC(=O)CCCCC[C@H](NC(=O)[C@H]1CC12CCN(CC)CC2)c1ncc(-c2ccc3c(=O)n(C4CC4)ccc3c2)[nH]1 [Compound 150] | 0.25 | 4370 | 114 | 135
CCC(=O)CCCCC[C@H](NC(=O)[C@H]1CC12CCN(CC)CC2)c1ncc(-c2ccc3c(=O)n(C4CC4)ccc3c2)o1 [Compound 153] | 6.14 | > 15000 | 452 | 447
CCC(=O)CCCCC[C@H](NC(=O)C1=NOC2(CCN(C)CC2)C1)c1ncc(-c2ccc3nn(C)cc3c2)[nH]1 [Compound 154] | 2.76 | 12100 | 518 | 476
CCC(=O)CCCCC[C@H](NC(=O)CN1CCC2(CC1)CC2)c1ncc(-c2ccc3nn(C)cc3c2)[nH]1 [Compound 155] | 2.05 | 8130 | 354 | 398
CCC(=O)CCCCC[C@H](NC(=O)C1CCC2(CC1)CN(C)C2)c1ncc(-c2ccc3nn(C)cc3c2)[nH]1 [Compound 156] | 1.98 | 5830 | 1360 | 1360

SMILES | IC50 [1] [nM] | IC50 (Recombinant human HDAC8) [nM] | EC50 (KARN cells (Jurkat 2C4); [2]) [nM] | EC50 (KARN cells (Jurkat 2C4); [3]) [nM]
CCC(=O)CCCCC[C@H](NC(=O)C1(CC(C)C)CC2(CN(C)C2)C1)c1ncc(-c2ccc3nc(C)ccc3c2)[nH]1 [Compound 157] | 4.01 | 4180 | 451 | 557
CCC(=O)CCCCC[C@H](NC(=O)[C@H]1CC12CCN(CC)CC2)c1ncc(-c2ccc3c(cnn3C3CC3)c2)[nH]1 [Compound 159] | 0.49 | 4620 | 73 | 57
CCC(=O)CCCCC[C@H](NC(=O)[C@H]1CC12CCN(C)CC2)c1ncc(-c2ccc3nc(C4CC4)oc3c2)[nH]1 [Compound 160] | 2.75 | 16800 | 200 | 234
CCC(=O)CCCCC[C@H](NC(=O)[C@H]1CC12CCN(CC)CC2)c1ncc(-c2ccc(-c3cnc(C4CC4)nc3)cc2)o1 [Compound 161] | 33 | 26800 | 1370 | 1460
CCC(=O)CCCCC[C@H](NC(=O)[C@H]1CC12CCN(CC)CC2)c1ncc(-c2ccc3c(=O)n(CC)ccc3c2)o1 [Compound 162] | 2.84 | > 45000 | 257 | 305
CCN1CCC2(CC1)C[C@@H]2C(=O)N[C@@H](CCCCCC(=O)CC1CC1)c1ncc(-c2cc3ccc(C)nc3cc2OC)[nH]1 [Compound 165] | 2.14 | 14700 | 140 | 385
CCN1CCC2(CC1)C[C@@H]2C(=O)N[C@@H](CCCCCC(=O)CC1CC1)c1ncc(-c2cc3ccc(C)nc3cc2OC)o1 [Compound 167] | 1.12 | 8270 | 122 | 253
CCC(=O)CCCCC[C@H](NC(=O)[C@H]1CC12CCN(C)CC2)c1ncc(-c2cc(OC)c3ccccc3n2)[nH]1 [Compound 170] | 4.84 | 835 | 436 | 1160
CCC(=O)CCCCC[C@H](NC(=O)[C@H]1CC12CCN(C)CC2)c1ncc(-c2ccc3nc(C)cc(Cl)c3c2)[nH]1 [Compound 174] | 0.43 | 1210 | 67 | 82
CCC(=O)CCCCC[C@H](N)c1ncc(-c2ccc3nc(C)ccc3c2)[nH]1 [Compound 178] | 54.9 | 3260 | 6790 | 10400
C=CCN1CCC2(CC1)C[C@@H]2C(=O)N[C@@H](CCCCCC(=O)CC)c1ncc(-c2ccc3c(c2)C2CCC3N2CC=C)[nH]1 (stereo partly drawn) [Compound 179, (1S)—N-{(1S)-7-oxo-1-[5-(9-prop-2-en-1-yl-1,2,3,4-tetrahydro-1,4-epiminonaphthalen-6-yl)-1H-imidazol-2-yl]nonyl}-6-prop-2-en-1-yl-6-azaspiro[2.5]octane-1-carboxamide] | 17.5 | 8660 | 2410 | 2390
C=CCN1CCC2(CC1)C[C@@H]2C(=O)N[C@@H](CCCCCC(=O)CC)c1ncc(-c2cccc3c2C2CCC3N2CC=C)[nH]1 (stereo partly drawn) [Compound 180, (1S)—N-{(1S)-7-oxo-1-[5-(9-prop-2-en-1-yl-1,2,3,4-tetrahydro-1,4-epiminonaphthalen-5-yl)-1H-imidazol-2-yl]nonyl}-6-prop-2-en-1-yl-6-azaspiro[2.5]octane-1-carboxamide] | 2.55 | 270 | 371 | 666
CCN1CCC2(CC1)C[C@@H]2C(=O)N[C@@H](CCCCCC(=O)CC1CCC1)c1ncc(-c2cc3ccc(C)nc3cc2OC)o1 [Compound 184] | 18.4 | > 45000 | 1630 | 2760
COc1cc2nc(C)ccc2cc1-c1cnc([C@H](CCCCCC(=O)CC2CCC2)NC(=O)[C@H]2CC23CCN(C)CC3)o1 [Compound 185] | 26 | > 45000 | 1330 | 2960
CCC(=O)CCCCC[C@H](NC(=O)[C@H]1CC12CCN(CC)CC2)c1ncc(-c2cc3nn(C)cc3cc2OC)o1 [Compound 189] | 2.34 | 27500 | 282 | 300
CCC(=O)CCCCC[C@H](NC(=O)[C@H]1CC12CCN(C)CC2)c1nnc(-c2cc3ccc(C)nc3cc2OC)o1 [Compound 191] | 1.68 | 43200 | 366 | 343
CCC(=O)CCCCC[C@H](NC(=O)C1=NOC2(CCN(C)CC2)C1)c1ncc(-c2cc3ccc(=O)n(C)c3cc2OC)o1 [Compound 193] | 1.81 | > 900 | 284 | 297
